These results are taken from US7368440B2, “Methods for the administration of amifostine and related compounds” (Medimmune Oncology, Inc., priority 2001, dated 2008).

Where two headings read alike, the source gives them in different places.

For this data set the following is noted: human, in vivo. The protocol: The reconstituted solution was drawn up in a 10 mL syringe for administration.
This solution was divided into two syringes (1.25 mL per syringe) for administration.
During the infusion, the subjects were kept in a supine position. […] Moreover, all subjects were given a standard lunch at noon, a standard dinner at 6:00 PM and a standard snack at 10:00 PM.
This formulation was administered by gently squirting the solution in the back of the subject's throat. […] All subjects were given a standard lunch at noon, a standard dinner at 6:00 PM and a standard snack at 10:00 PM.
All subjects were given a standard lunch at noon, a standard dinner at 6:00 PM and a standard snack at 10:00 PM.
Non-compartmental modelling of the data was performed.

Regarding `NCCCNCCS` [WR-1065, S-2-(3-Aminopropyl Amino) ethanethiol], the “Relative bioavailability Ratio PO/IV (Metabolite)” value was 0.32 and the “Relative bioavailability Ratio SC/IV (Metabolite)” value amounted to 0.71. In addition, under “iv”, the “time at which WR-1065 concentration fell below 5 μM” value is “approximately 45 minutes”. Further, the “time at which WR-1065 concentration fell below 5 μM” value (sc) is listed as “approximately 60 minutes”. Besides, under “male, iv”, the “peak levels (maximum whole blood concentration)” value was “about 23 μM”; the “time within which whole blood concentrations peaked and declined rapidly” value was at most 10 min. Besides, under “male, sc”, the maximum blood levels is around 4 µM; the “time to maximum and sustained whole blood concentration” value was in the range of 15 to 45 min.
